The values below come from patent US20060018826A1, “Biologic modulations with nanoparticles” (priority 2002, published 2006).

The test system of the series is hormone-insensitive PC3 cells. The series can be described thus: Growth inhibition in prostate carcinoma cells. Format: cell-based. On the procedure: In these studies, cells were seeded at 5,000 cells per untreated well.

Consider “GTCCCGACATGTCAGACAGG (antisense GTCCCGACATGTCAGACAGG; chemistry not given here) [SEQ ID NO 1, antisense 20 mer spanning the translation start site of CK2α]”, for which the “IC50 as % of cisplatin's IC50” value was determined as 65%.
